# Reference: article PMC11807725, “Screening and Antioxidant Activities Evaluation of Peptides From Abalone (Haliotis discus hannai Ino)” (Food Science & Nutrition, 2025)
# Peptide text beside a SMILES is read from it.
# Experiments:
# Format in all cases: cell-based, human
# HUVECs [1] = test: Cytotoxicity testing of peptides in HUVECs (CCK-8); settings: for cytotoxicity to HUVECs (in words) / toxicity to HUVECs (in words) / effect on HUVEC growth (in words): 24 h, CCK-8; for toxicity to HUVECs (in words): concentration range 3.9–1000 μg/mL; for effect on HUVEC growth (in words): within 3.9–1000 μg/mL; for effect on HUVEC viability (in words): vs control p < 0.01
# Method: Peptide cytotoxicity in HUVECs was assessed using the CCK‐8 assay to determine cell viability (Suo et al. [2022]). HUVECs were digested with 0.25% trypsin, resuspended in RPMI 1640 complete medium containing 10% FBS at a density of 5 × 10^4 cells/mL, and seeded into 96‐well plates at 100 μL/well. Cells were incubated in a CO2 incubator (37°C, 5% CO2) for 12 h.
# Control and experimental groups were established with six replicates each. After cell adhesion, 10 μL of peptide solution was added to the experimental groups at final concentrations of 3.9, 7.8, 15.6, 31.25, 62.5, 125, 250, 500, and 1000 μg/mL, whereas the control group received an equivalent volume of complete medium. After 24 h of incubation in the CO2 incubator, 10 μL of CCK‐8 solution was added to each well, and cells were incubated for 1 h. Optical density (OD) was measured at 450 nm using an Infinite M1000 Pro microplate reader (Tecan, Switzerland). Cell viability was calculated using the following formula: Cell Viability%=AS−AO/AC−AO×100% where A C represents the OD of the control group, A S indicates the OD of the experimental group, and A O is the OD of the blank wells.
# HUVECs damaged by AAPH [2] = settings: at different concentrations, 6 mmol/L AAPH model, p > 0.05
# Method: The experiment included control, model, and experimental groups. HUVECs were seeded into 96‐well plates at a density of 5 × 10^4 cells/mL at 100 μL per well, with six replicates per group. After cell adhesion, the model and experimental groups were treated with 10 μL of AAPH solution to a final concentration of 6 mmol/L, whereas the control group received an equivalent volume of medium. After 24 h, the experimental groups were treated with 10 μL of peptide solutions to final concentrations of 3.9, 7.8, 15.6, 31.25, 62.5, 125, 250, 500, and 1000 μg/mL. The control and model groups received an equivalent volume of medium.
# HUVECs [3] = test: Establishment of the AAPH-induced HUVEC oxidative damage model (CCK-8 viability); settings: 24 h; for cell survival rate: CCK-8
# Method: The oxidative damage model was established using the method described by Li et al. ([2023]). HUVECs were seeded into 96‐well plates at a density of 5 × 10^4 cells/mL at 100 μL/well and incubated in a CO2 incubator (37°C, 5% CO2) for 12 h.
# HUVECs damaged by AAPH [4] = test: SOD activity in AAPH-damaged HUVECs; settings: 250, 500, and 1000 μg/mL, 24 h after 6 mmol/L AAPH 24 h; p < 0.05; three replicates
# Method: (§1) The model and experimental groups were established, and HUVECs were seeded into 6-well plates at a density of 5 × 10^4 cells/mL at 2 mL/well, with three replicates per group. After cell adhesion, the model and experimental groups were treated with 2 mL of AAPH solution at a final concentration of 6 mmol/L, whereas the control group received an equivalent volume of the medium. After 24 h of incubation, experimental groups were treated with 200 μL of peptide […] at a final concentration of 250, 500, and 1000 μg/mL. The control and model groups received an equivalent volume of the medium. After 24 h incubation, the cells were collected, and the protein content was measured using the BCA protein assay kit. The activities of SOD, CAT, and GSH were determined using the respective assay kits.
# HUVECs damaged by AAPH [5] = test: CAT activity in AAPH-damaged HUVECs; settings: 250, 500, and 1000 μg/mL, 24 h after 6 mmol/L AAPH 24 h; p < 0.05; three replicates
# Method: as §1
# HUVECs damaged by AAPH [6] = test: GSH content in AAPH-damaged HUVECs; settings: 250, 500, and 1000 μg/mL, 24 h after 6 mmol/L AAPH 24 h; p < 0.05; three replicates
# Method: as §1
# HUVECs damaged by AAPH [7] = test: ROS levels in AAPH-damaged HUVECs (DCFH-DA); settings: 24 h after 6 mmol/L AAPH 24 h, DCFH-DA fluorescence
# Method: Model and experimental groups were established, and HUVECs were seeded into 96-well plates at a density of 5 × 10^4 cells/mL at 100 μL/well, with six replicates per group. After cell adhesion, the control group received the medium, whereas the model and experimental groups were treated with 10 μL of AAPH solution to a final concentration of 6 mmol/L. After 24 h of incubation, experimental groups were treated with 10 μL of peptide […] at final concentrations of 250, 500, and 1000 μg/mL. The control and model groups received an equivalent volume of the medium. After another 24 h of incubation, ROS levels were measured according to the instructions of the ROS detection kit. Cells were washed twice with PBS, treated with 10 μL of 10 μmol/L DCFH-DA working solution, and incubated in the dark for 30 min in the CO2 incubator (37°C, 5% CO2). The cells were then washed three times with PBS, and the fluorescence intensity was measured using an Infinite […] microplate reader (Tecan, Switzerland).
# [8] = concentrations of 3.9–500 μg/mL
structure (smiles),measurement,setting,value
CC[C@H](C)[C@H](NC(=O)[C@H](CC(=O)O)NC(=O)[C@@H](N)CC(=O)O)C(=O)N[C@@H](CCSC)C(=O)N[C@@H](CCC(=O)O)C(=O)N[C@@H](CC(=O)O)C(=O)N[C@@H](CCCCN)C(=O)N[C@@H](CC(=O)O)C(=O)N[C@@H](CC(N)=O)C(=O)N[C@@H](Cc1ccccc1)C(=O)O [DDIMEDKDNF] (H-DDIMEDKDNF-OH; N-terminus and C-terminus assumed),cytotoxicity to HUVECs (in words),HUVECs [1]; 3.9–250 μg/mL,nontoxic
CSCC[C@H](NC(=O)[C@H](Cc1ccc(O)cc1)NC(=O)CNC(=O)[C@H](CCSC)NC(=O)[C@@H](NC(=O)[C@H](CO)NC(=O)[C@@H](NC(=O)[C@@H](N)CC(=O)O)[C@@H](C)O)[C@@H](C)O)C(=O)N[C@@H](C)C(=O)N[C@@H](C)C(=O)N[C@@H](CCCCN)C(=O)O [DTSTMGYMAAK] (H-DTSTMGYMAAK-OH; N-terminus and C-terminus assumed),toxicity to HUVECs (in words),HUVECs [1],no toxicity
same,cell viability compared with the model group (in words),HUVECs damaged by AAPH [2],did not show significant differences
N[C@@H](CCC(=O)O)C(=O)N[C@@H](CC(=O)O)C(=O)N[C@@H](CCC(=O)O)C(=O)O [EDE] (H-Glu-Asp-Glu-OH; N-terminus and C-terminus assumed),effect on HUVEC growth (in words),HUVECs [1],promoted cell growth
same,cell viability compared with the model group (in words),HUVECs damaged by AAPH [2],did not show significant differences
NCC(=O)N[C@@H](CCC(=O)O)C(=O)N[C@@H](Cc1ccc(O)cc1)C(=O)N[C@@H](CCC(N)=O)C(=O)O [GEYQ] (H-GEYQ-OH; N-terminus and C-terminus assumed),effect on HUVEC viability (in words),HUVECs [1]; 3.9–62.5 μg/mL,clear inhibitory effect
"CC(C)(N=NC(C)(C)C(=N)N)C(=N)N.Cl.Cl [AAPH, 2,2′‐azobis(2‐methylpropionamidine) dihydrochloride]",cell survival rate,HUVECs [3]; AAPH 4 mmol/L,92.64% ± 0.06%
same,cell survival rate,HUVECs [3]; AAPH 6 mmol/L,87.35% ± 0.05%
same,cell survival rate,HUVECs [3]; AAPH 8 mmol/L,78.64% ± 0.03%
same,cell survival rate,HUVECs [3]; AAPH 10 mmol/L,43.10% ± 0.04%
same,cell survival rate,HUVECs [3]; AAPH 12 mmol/L,5.07% ± 0.01%
same,cell viability,"HUVECs [3]; AAPH 0.25, 0.5, 1, and 2 mmol/L, significantly higher than control (p < 0.01)",> 100%
C[C@H](NC(=O)[C@@H](N)CC(=O)O)C(=O)N[C@@H](CO)C(=O)N[C@@H](CS)C(=O)N[C@@H](CCCCN)C(=O)O [DASCK] (H-DASCK-OH; N-terminus and C-terminus assumed),toxicity to HUVECs (in words),HUVECs [1],no toxicity
same,effect on HUVEC growth (in words),HUVECs [1],promoted cell growth
CC[C@H](C)[C@H](NC(=O)[C@H](Cc1c[nH]cn1)NC(=O)CNC(=O)[C@@H](N)Cc1ccccc1)C(=O)N[C@@H](CO)C(=O)N[C@H](C(=O)O)C(C)C [FGHISV] (H-FGHISV-OH; N-terminus and C-terminus assumed),cytotoxicity to HUVECs (in words),HUVECs [1]; [8],no cytotoxicity
same,cell viability compared with the model group (in words),HUVECs damaged by AAPH [2],did not show significant differences
NCCCC[C@H](NC(=O)[C@H](CC(=O)O)NC(=O)[C@H](CCC(=O)O)NC(=O)[C@H](CC(=O)O)NC(=O)[C@H](CCC(=O)O)NC(=O)[C@H](CC(=O)O)NC(=O)[C@H](CCC(=O)O)NC(=O)[C@@H](N)CC(=O)O)C(=O)O [DEDEDEDK] (H-DEDEDEDK-OH; N-terminus and C-terminus assumed),SOD activity in the cells vs model group (in words),HUVECs damaged by AAPH [4],increased significantly
same,CAT activity in the cells vs model group (in words),HUVECs damaged by AAPH [5],increased significantly
same,effect on HUVEC growth (in words),HUVECs [1],promoted cell growth
same,GSH content in the cells vs model group (in words),HUVECs damaged by AAPH [6],significantly increased
same,ROS content compared with the model group (in words),"HUVECs damaged by AAPH [7]; DEDEDEDK 1000 μg/mL, p < 0.05",significantly reduced
same,ROS levels compared with the model group (in words),"HUVECs damaged by AAPH [7]; DEDEDEDK 250 and 500 μg/mL, p > 0.05",no significant change
CC(C)[C@H](NC(=O)[C@H](CCC(=O)O)NC(=O)[C@H](CCC(=O)O)NC(=O)[C@@H](NC(=O)[C@@H](NC(=O)[C@H](CCC(=O)O)NC(=O)[C@@H]1CCCN1C(=O)[C@H](CCC(=O)O)NC(=O)[C@@H](N)Cc1ccccc1)[C@@H](C)O)[C@@H](C)O)C(=O)N[C@@H](CCCNC(=N)N)C(=O)O [FEPETTEEVR] (H-FEPETTEEVR-OH; N-terminus and C-terminus assumed),toxicity to HUVECs (in words),HUVECs [1],no toxicity
same,effect on HUVEC growth (in words),HUVECs [1],promoted cell growth
CC(C)[C@H](NC(=O)[C@H](C)N)C(=O)N[C@H](C(=O)N[C@@H](CCC(=O)O)C(=O)N[C@@H](CO)C(=O)N[C@@H](CCCCN)C(=O)O)C(C)C [AVVESK] (H-AVVESK-OH; N-terminus and C-terminus assumed),cytotoxicity to HUVECs (in words),HUVECs [1]; [8],no cytotoxicity
CC[C@H](C)[C@H](NC(=O)[C@H](CCC(=O)O)NC(=O)[C@H](CCSC)NC(=O)[C@@H]1CCCN1C(=O)[C@@H](NC(=O)[C@H](Cc1c[nH]cn1)NC(=O)[C@H](CC(N)=O)NC(=O)[C@H](CO)NC(=O)[C@H](CCC(N)=O)NC(=O)[C@H](CO)NC(=O)[C@@H](NC(=O)[C@H](Cc1c[nH]c2ccccc12)NC(=O)[C@@H](NC(=O)[C@@H](N)Cc1ccccc1)[C@@H](C)O)C(C)C)[C@@H](C)CC)C(=O)N[C@@H](CCC(=O)O)C(=O)N[C@@H](CCC(=O)O)C(=O)N[C@@H](CC(=O)O)C(=O)N[C@@H](CO)C(=O)N[C@@H](C)C(=O)N[C@@H](CCCCN)C(=O)N1CCC[C@H]1C(=O)N[C@@H](Cc1c[nH]c2ccccc12)C(=O)N[C@@H](CC(C)C)C(=O)O (H-FTWVSQSNHIPMEIEEDSAKPWL-OH; N-terminus and C-terminus assumed),effect on HUVEC viability (in words),HUVECs [1]; 31.25–1000 μg/mL,clear inhibitory effect
